Test results from the supplement of paper PMC10307832.

How the values were obtained:
Assay in all cases: relative viability (nuclei count vs DMSO), 5 days (fraction); higher = more cells survive
Vemurafenib + Luminespib = compound: CCCS(=O)(=O)Nc1ccc(F)c(C(=O)c2c[nH]c3ncc(-c4ccc(Cl)cc4)cc23)c1F [Vemurafenib] + CCNC(=O)c1noc(-c2cc(C(C)C)c(O)cc2O)c1-c1ccc(CN2CCOCC2)cc1 [Luminespib] (partner 0.01 µM)
How it was run: (§1)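 For relative viability, nuclei counts in treated wells were divided by those in vehicle wells. Lung cancer cell lines had been pin-tool dosed in 1536-well plates the day after seeding and cultured for 5 days, then fixed and stained in one step (final 0.05% Triton X-100, 1% formaldehyde, 1 ug/ml Hoechst) and imaged at 4×. Doses were one drug alone or a fixed anchor-drug dose plus five library-drug doses (not always all listed) in √10 steps, and values are duplicate-plate medians.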

Alpelisib + Tozasertib = compound: Cc1nc(NC(=O)N2CCC[C@H]2C(N)=O)sc1-c1ccnc(C(C)(C)C(F)(F)F)c1 [Alpelisib] + Cc1cc(Nc2cc(N3CCN(C)CC3)nc(Sc3ccc(NC(=O)C4CC4)cc3)n2)n[nH]1 [Tozasertib] (partner 0.1 µM)
How it was run: as §1

Alpelisib + Crizotinib = compound: Cc1nc(NC(=O)N2CCC[C@H]2C(N)=O)sc1-c1ccnc(C(C)(C)C(F)(F)F)c1 [Alpelisib] + C[C@@H](Oc1cc(-c2cnn(C3CCNCC3)c2)cnc1N)c1c(Cl)ccc(F)c1Cl [Crizotinib] (partner 1 µM)
How it was run: as §1

OSI-027 + Dasatinib = compound: COc1cccc2cc(-c3nc([C@H]4CC[C@H](C(=O)O)CC4)n4ncnc(N)c34)[nH]c12 [OSI-027] + Cc1nc(Nc2ncc(C(=O)Nc3c(C)cccc3Cl)s2)cc(N2CCN(CCO)CC2)n1 [Dasatinib] (partner 0.075 µM)
How it was run: as §1

Cell Line	relative viability (Vemurafenib + Luminespib; first compound 0.03162 µM)	relative viability (Vemurafenib + Luminespib; first compound 0.1 µM)	relative viability (Vemurafenib + Luminespib; first compound 0.3162 µM)	relative viability (Vemurafenib + Luminespib; first compound 1 µM)	relative viability (Alpelisib + Tozasertib; first compound 0.04 µM)	relative viability (Alpelisib + Tozasertib; first compound 0.1265 µM)	relative viability (Alpelisib + Tozasertib; first compound 0.4 µM)	relative viability (Alpelisib + Tozasertib; first compound 1.265 µM)	relative viability (Alpelisib + Tozasertib; first compound 4 µM)	relative viability (Alpelisib + Crizotinib; first compound 0.04 µM)	relative viability (Alpelisib + Crizotinib; first compound 0.1265 µM)	relative viability (Alpelisib + Crizotinib; first compound 0.4 µM)	relative viability (Alpelisib + Crizotinib; first compound 1.265 µM)	relative viability (Alpelisib + Crizotinib; first compound 4 µM)	relative viability (OSI-027 + Dasatinib; first compound 0.01 µM)	relative viability (OSI-027 + Dasatinib; first compound 0.03162 µM)	relative viability (OSI-027 + Dasatinib; first compound 0.1 µM)	relative viability (OSI-027 + Dasatinib; first compound 0.3162 µM)	relative viability (OSI-027 + Dasatinib; first compound 1 µM)
NCI-H520	0.187	0.231	0.221	0.233	0.449	0.461	0.462	0.351	0.309	0.823	0.75	0.739	0.463	0.515	0.254	0.192	0.143	0.133	0.129
NCI-H1755	0.442	0.574	0.332	0.462	0.615	0.508	0.629	0.438	0.434	0.828	0.819	0.966	0.801	0.578	0.392	0.458	0.39	0.42	0.229
CAL-12T	0.375	0.345	0.228	0.847	0.295	0.308	0.246	0.212	0.317	0.66	0.53	0.711	0.556	0.596	0.4	0.376	0.367	0.36	0.148
NCI-H1734	0.196	0.183	0.233	0.2	0.289		0.299	0.224	0.205	0.633	0.605	0.715	0.506	0.382	0.473	0.408	0.45	0.388	0.282
NCI-H358	0.27		0.504	0.267	0.111	0.114	0.116	0.0852	0.0831	0.785	0.534	0.725	0.473	0.354	0.154	0.183	0.158	0.127	0.132
NCI-H650	0.72	0.852		0.637	0.705	0.758	0.798	0.54	0.573	0.737	0.693	0.88	0.478	0.546	0.405	0.464	0.336	0.347	0.311
BEN	0.382	0.302		0.274	0.552	0.443	0.571	0.521	0.484	0.956	0.95	1.04	0.884	0.866	0.304	0.567	0.273	0.218	0.169
NCI-H647	0.157	0.165	0.138	0.212	0.416	0.322	0.419	0.102	0.26	1.03	1.08	1.11	0.933	0.913	0.126	0.14	0.157	0.171	0.071
NCI-H661	0.979	0.806	0.897	0.953	0.369	0.362	0.348	0.337	0.323	0.968	0.96	1.07	1.01	0.937	0.664	0.989	0.708	0.602	0.383
NCI-H2347	0.626	0.164	0.552	0.71	0.649	0.582	0.682	0.39	0.361	0.674	0.897	0.859	0.603	0.61	0.281	0.379	0.205	0.22	0.268
LC-2-ad	0.887	0.978		1.05	0.377	0.372	0.431	0.307	0.348	0.501	0.316	0.532	0.351	0.386	0.585	0.537	0.494	0.455	0.333
COR-L 105	0.738			0.935	0.372	0.343	0.591	0.306	0.334	0.697	1	0.879	0.691	0.695	0.322	0.328	0.299	0.236	0.243
